Assays:
RAF1 (cRAF) Y340D Y341D = target: T1, RAF1 (cRAF) Y340D Y341D (Homo sapiens, UniProt P04049, Y340D/Y341D); assay: SelectScreen ZLYTE; assay type: biochemical; details: ATP 100 µM, read-out: Percentage of inhibition
T1 construct: purchased Life Technologies
How it was run: (§1)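 Readout is % inhibition. The inhibitor was applied at 1 μM against every kinase of an extensive commercial panel.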

PRKCG (PKC gamma) = PRKCG (PKC gamma) (Homo sapiens, UniProt P05129); assay: SelectScreen ZLYTE; assay type: biochemical; details: ATP Km, read-out: Percentage of inhibition
How it was run: as §1

YES1 = YES1 (Homo sapiens, UniProt P07947); assay: SelectScreen ZLYTE; assay type: biochemical; details: ATP Km, read-out: Percentage of inhibition
How it was run: as §1

CSNK1A1 (CK1 alpha 1) = target: T2, CSNK1A1 (CK1 alpha 1) (Homo sapiens, UniProt P48729); assay: SelectScreen ZLYTE; assay type: biochemical; details: ATP Km, read-out: Percentage of inhibition
T2 construct: purchased Life Technologies (SelectScreen Whole Panel)
How it was run: as §1

CDKL5 = target: T3, CDKL5 (Homo sapiens, UniProt O76039); assay: SelectScreen ZLYTE; assay type: biochemical; details: ATP Km, read-out: Percentage of inhibition
T3 construct: purchased Life Technologies
How it was run: as §1

PRKCQ (PKC theta) = PRKCQ (PKC theta) (Homo sapiens, UniProt Q04759); assay: SelectScreen ZLYTE; assay type: biochemical; details: ATP Km, read-out: Percentage of inhibition
How it was run: as §1

DYRK1A = target: T4, DYRK1A (Homo sapiens, UniProt Q13627); assay: SelectScreen ZLYTE; assay type: biochemical; details: ATP Km, read-out: Percentage of inhibition
T4 construct: purchased Life Technologies
How it was run: as §1

SRMS (Srm) = target: T5, SRMS (Srm) (Homo sapiens, UniProt Q9H3Y6); assay: SelectScreen ZLYTE; assay type: biochemical; details: ATP Km, read-out: Percentage of inhibition
T5 construct: purchased Life Technologies (SelectScreen Whole Panel service)
How it was run: as §1

MARK3 = target: T6, MARK3 (Homo sapiens, UniProt P27448); assay: SelectScreen ZLYTE; assay type: biochemical; details: ATP Km, read-out: Percentage of inhibition
T6 construct: purchased Life Technologies
How it was run: as §1

[1] = target: EGFR (ErbB1) T790M C797S L858R (Homo sapiens, UniProt P00533, C797S/L858R/T790M); assay: SelectScreen ZLYTE; assay type: biochemical; details: ATP Km, read-out: Percentage of inhibition
How it was run: as §1

MAPK13 (p38 delta) = MAPK13 (p38 delta) (Homo sapiens, UniProt O15264); assay: SelectScreen ZLYTE; assay type: biochemical; details: ATP Km, read-out: Percentage of inhibition
How it was run: as §1

FGFR4 = FGFR4 (Homo sapiens, UniProt P22455); assay: SelectScreen ZLYTE; assay type: biochemical; details: ATP Km, read-out: Percentage of inhibition
How it was run: as §1

FGFR2 N549H = target: T7, FGFR2 N549H (Homo sapiens, UniProt P21802, N549H); assay: SelectScreen ZLYTE; assay type: biochemical; details: ATP Km, read-out: Percentage of inhibition
T7 construct: purchased Life Technologies (SelectScreen service)
How it was run: as §1

STK3 (MST2) = target: T8, STK3 (MST2) (Homo sapiens, UniProt Q13188); assay: SelectScreen ZLYTE; assay type: biochemical; details: ATP Km, read-out: Percentage of inhibition
T8 construct: purchased Life Technologies (SelectScreen Whole Panel)
How it was run: as §1

SRPK2 = SRPK2 (Homo sapiens, UniProt P78362); assay: SelectScreen ZLYTE; assay type: biochemical; details: ATP Km, read-out: Percentage of inhibition
How it was run: as §1

FGFR3 V555M = target: T9, FGFR3 V555M (Homo sapiens, UniProt P22607, V555M); assay: SelectScreen ZLYTE; assay type: biochemical; details: ATP Km, read-out: Percentage of inhibition
T9 construct: purchased Life Technologies (SelectScreen Whole Panel service)
How it was run: as §1

MAP4K2 (GCK) = target: T10, MAP4K2 (GCK) (Homo sapiens, UniProt Q12851); assay: SelectScreen ZLYTE; assay type: biochemical; details: ATP Km, read-out: Percentage of inhibition
T10 construct: purchased Life Technologies (SelectScreen Whole Panel service)
How it was run: as §1

MAP4K4 (HGK) = target: T11, MAP4K4 (HGK) (Homo sapiens, UniProt O95819); assay: SelectScreen ZLYTE; assay type: biochemical; details: ATP Km, read-out: Percentage of inhibition
T11 construct: purchased Life Technologies (SelectScreen service)
How it was run: as §1

ABL1 = target: T12, ABL1 (Homo sapiens, UniProt P00519); assay: SelectScreen ZLYTE; assay type: biochemical; details: ATP Km, read-out: Percentage of inhibition
T12 construct: purchased Life Technologies (SelectScreen Whole Panel service)
How it was run: as §1

PAK3 = target: T13, PAK3 (Homo sapiens, UniProt O75914); assay: SelectScreen ZLYTE; assay type: biochemical; details: ATP Km, read-out: Percentage of inhibition
T13 construct: purchased Life Technologies
How it was run: as §1

SNF1LK2 = target: T14, SNF1LK2 (Homo sapiens, UniProt Q9H0K1); assay: SelectScreen ZLYTE; assay type: biochemical; details: ATP Km, read-out: Percentage of inhibition
T14 construct: purchased Life Technologies (SelectScreen service)
How it was run: as §1

RPS6KA2 (RSK3) = target: T15, RPS6KA2 (RSK3) (Homo sapiens, UniProt Q15349); assay: SelectScreen ZLYTE; assay type: biochemical; details: ATP Km, read-out: Percentage of inhibition
T15 construct: purchased Life Technologies (SelectScreen service)
How it was run: as §1

FLT3 D835Y = target: T16, FLT3 D835Y (Homo sapiens, UniProt P36888, D835Y); assay: SelectScreen ZLYTE; assay type: biochemical; details: ATP Km, read-out: Percentage of inhibition
T16 construct: purchased Life Technologies (SelectScreen Whole Panel)
How it was run: as §1

AMPK (A2/B2/G3) = AMPK (A2/B2/G3) (Homo sapiens, UniProt P54646); assay: SelectScreen ZLYTE; assay type: biochemical; details: ATP Km, read-out: Percentage of inhibition
How it was run: as §1

MAPKAPK5 (PRAK) = MAPKAPK5 (PRAK) (Homo sapiens, UniProt Q8IW41); assay: SelectScreen ZLYTE; assay type: biochemical; details: ATP Km, read-out: Percentage of inhibition
How it was run: as §1

PLK2 = target: T17, PLK2 (Homo sapiens, UniProt Q9NYY3); assay: SelectScreen ZLYTE; assay type: biochemical; details: ATP Km, read-out: Percentage of inhibition
T17 construct: purchased Life Technologies (SelectScreen service)
How it was run: as §1

STK24 (MST3) = STK24 (MST3) (Homo sapiens, UniProt Q9Y6E0); assay: SelectScreen ZLYTE; assay type: biochemical; details: ATP Km, read-out: Percentage of inhibition
How it was run: as §1

PRKCE (PKC epsilon) = target: T18, PRKCE (PKC epsilon) (Homo sapiens, UniProt Q02156); assay: SelectScreen ZLYTE; assay type: biochemical; details: ATP Km, read-out: Percentage of inhibition
T18 construct: purchased Life Technologies (SelectScreen Whole Panel service)
How it was run: as §1

SBK1 = target: T19, SBK1 (Homo sapiens, UniProt Q52WX2); assay: SelectScreen ZLYTE; assay type: biochemical; details: ATP Km, read-out: Percentage of inhibition
T19 construct: purchased Life Technologies (SelectScreen Whole Panel)
How it was run: as §1

FLT4 (VEGFR3) = target: T20, FLT4 (VEGFR3) (Homo sapiens, UniProt P35916); assay: SelectScreen ZLYTE; assay type: biochemical; details: ATP Km, read-out: Percentage of inhibition
T20 construct: purchased Life Technologies (SelectScreen service)
How it was run: as §1

AMPK (A1/B2/G2) = AMPK (A1/B2/G2) (Homo sapiens, UniProt Q13131); assay: SelectScreen ZLYTE; assay type: biochemical; details: ATP Km, read-out: Percentage of inhibition
How it was run: as §1

SRC = target: T21, SRC (Homo sapiens, UniProt P12931); assay: SelectScreen ZLYTE; assay type: biochemical; details: ATP Km, read-out: Percentage of inhibition
T21 construct: purchased Life Technologies
How it was run: as §1

PTK2 (FAK) = target: T22, PTK2 (FAK) (Homo sapiens, UniProt Q05397); assay: SelectScreen ZLYTE; assay type: biochemical; details: ATP Km, read-out: Percentage of inhibition
T22 construct: purchased Life Technologies (SelectScreen service)
How it was run: as §1

U-2 OS cell line = assay: Cell viability MTS assay, dose-response; assay type: cell-based; details: Homo sapiens, U2OS; 48 h, MTS assay in triplicate, doses up to 50 µM
Description: HCT116 cells were cultured in McCoy’s medium. SH-SY5Y, MDA-MB231 and U-2 OS cells were cultured in Dulbecco's modified Eagle's medium (DMEM) and hTERT RPE-1 cells in DMEM:F12 medium. All media were supplemented with 10% foetal calf serum and cells were cultured at 37 °C in a 5% CO2 humidified atmosphere.
Cell viability was then assessed using the CellTiter96 AQueous cell proliferation assay from Promega according to the manufacturer’s instructions. Each experiment was done in triplicate and EC50 were determined from the dose-response curves according to the signal given by the control (0.1% DMSO) set at 100% viability using Prism GraphPad software.

T20 sequence (P35916 25-1363): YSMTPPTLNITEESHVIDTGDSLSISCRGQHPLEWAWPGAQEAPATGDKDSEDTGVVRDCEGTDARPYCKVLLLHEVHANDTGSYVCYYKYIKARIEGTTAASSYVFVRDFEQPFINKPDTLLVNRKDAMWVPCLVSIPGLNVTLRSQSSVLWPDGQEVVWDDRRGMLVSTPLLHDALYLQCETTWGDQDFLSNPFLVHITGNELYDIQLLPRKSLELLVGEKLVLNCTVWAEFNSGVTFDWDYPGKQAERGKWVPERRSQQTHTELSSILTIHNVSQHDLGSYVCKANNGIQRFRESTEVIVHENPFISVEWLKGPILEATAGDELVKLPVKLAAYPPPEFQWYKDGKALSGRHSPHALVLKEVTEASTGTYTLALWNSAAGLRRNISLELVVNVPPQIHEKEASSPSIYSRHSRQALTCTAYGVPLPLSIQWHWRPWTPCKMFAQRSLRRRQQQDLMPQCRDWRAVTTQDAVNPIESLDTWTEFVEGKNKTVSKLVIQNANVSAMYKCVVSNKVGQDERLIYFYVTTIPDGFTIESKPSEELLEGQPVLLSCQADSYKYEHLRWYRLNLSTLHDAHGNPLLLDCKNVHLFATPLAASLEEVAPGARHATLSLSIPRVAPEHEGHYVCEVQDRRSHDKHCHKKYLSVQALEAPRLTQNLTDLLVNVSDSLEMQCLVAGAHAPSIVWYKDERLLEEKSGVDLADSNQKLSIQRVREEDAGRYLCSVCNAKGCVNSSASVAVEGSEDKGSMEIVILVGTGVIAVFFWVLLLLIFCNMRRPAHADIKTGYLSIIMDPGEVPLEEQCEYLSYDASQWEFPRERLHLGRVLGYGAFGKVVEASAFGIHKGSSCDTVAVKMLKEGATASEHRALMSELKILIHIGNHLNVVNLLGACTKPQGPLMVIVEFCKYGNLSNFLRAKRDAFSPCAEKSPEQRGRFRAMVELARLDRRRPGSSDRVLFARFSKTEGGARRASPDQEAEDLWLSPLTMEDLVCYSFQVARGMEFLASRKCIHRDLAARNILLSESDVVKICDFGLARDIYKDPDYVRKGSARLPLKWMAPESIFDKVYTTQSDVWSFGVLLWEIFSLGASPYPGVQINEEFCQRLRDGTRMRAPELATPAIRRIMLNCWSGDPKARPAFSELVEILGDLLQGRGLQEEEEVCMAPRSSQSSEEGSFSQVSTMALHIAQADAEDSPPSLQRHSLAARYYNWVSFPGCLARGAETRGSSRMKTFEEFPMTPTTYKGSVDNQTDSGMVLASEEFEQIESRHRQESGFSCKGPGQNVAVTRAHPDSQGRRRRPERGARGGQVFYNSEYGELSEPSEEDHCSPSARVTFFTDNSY
T14 sequence (Q9H0K1 whole entry): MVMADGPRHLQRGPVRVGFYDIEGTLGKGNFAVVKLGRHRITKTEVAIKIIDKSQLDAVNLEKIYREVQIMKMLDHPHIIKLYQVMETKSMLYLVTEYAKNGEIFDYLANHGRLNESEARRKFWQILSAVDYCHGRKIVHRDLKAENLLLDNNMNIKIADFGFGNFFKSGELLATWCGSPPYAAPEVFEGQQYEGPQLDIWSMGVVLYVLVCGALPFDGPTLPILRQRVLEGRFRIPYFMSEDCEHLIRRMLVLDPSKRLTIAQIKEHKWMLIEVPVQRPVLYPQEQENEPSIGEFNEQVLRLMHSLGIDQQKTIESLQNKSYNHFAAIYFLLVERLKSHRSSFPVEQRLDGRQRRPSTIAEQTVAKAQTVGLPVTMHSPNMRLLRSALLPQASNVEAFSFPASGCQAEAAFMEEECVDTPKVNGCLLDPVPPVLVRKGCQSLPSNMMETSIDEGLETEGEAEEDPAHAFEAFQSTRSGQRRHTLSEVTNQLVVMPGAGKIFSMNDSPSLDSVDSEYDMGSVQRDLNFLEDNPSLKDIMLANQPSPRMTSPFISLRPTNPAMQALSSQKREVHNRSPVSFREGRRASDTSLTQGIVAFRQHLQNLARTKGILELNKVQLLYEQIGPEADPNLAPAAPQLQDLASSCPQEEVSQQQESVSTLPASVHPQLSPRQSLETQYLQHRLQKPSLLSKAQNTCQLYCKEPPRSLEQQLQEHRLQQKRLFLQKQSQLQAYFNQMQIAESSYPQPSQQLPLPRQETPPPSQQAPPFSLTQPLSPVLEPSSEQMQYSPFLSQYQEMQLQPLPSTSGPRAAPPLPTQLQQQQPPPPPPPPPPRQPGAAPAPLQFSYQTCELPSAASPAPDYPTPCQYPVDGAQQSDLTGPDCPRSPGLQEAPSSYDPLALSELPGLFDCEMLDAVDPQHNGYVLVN
T9 sequence (P22607 23-806 V555M): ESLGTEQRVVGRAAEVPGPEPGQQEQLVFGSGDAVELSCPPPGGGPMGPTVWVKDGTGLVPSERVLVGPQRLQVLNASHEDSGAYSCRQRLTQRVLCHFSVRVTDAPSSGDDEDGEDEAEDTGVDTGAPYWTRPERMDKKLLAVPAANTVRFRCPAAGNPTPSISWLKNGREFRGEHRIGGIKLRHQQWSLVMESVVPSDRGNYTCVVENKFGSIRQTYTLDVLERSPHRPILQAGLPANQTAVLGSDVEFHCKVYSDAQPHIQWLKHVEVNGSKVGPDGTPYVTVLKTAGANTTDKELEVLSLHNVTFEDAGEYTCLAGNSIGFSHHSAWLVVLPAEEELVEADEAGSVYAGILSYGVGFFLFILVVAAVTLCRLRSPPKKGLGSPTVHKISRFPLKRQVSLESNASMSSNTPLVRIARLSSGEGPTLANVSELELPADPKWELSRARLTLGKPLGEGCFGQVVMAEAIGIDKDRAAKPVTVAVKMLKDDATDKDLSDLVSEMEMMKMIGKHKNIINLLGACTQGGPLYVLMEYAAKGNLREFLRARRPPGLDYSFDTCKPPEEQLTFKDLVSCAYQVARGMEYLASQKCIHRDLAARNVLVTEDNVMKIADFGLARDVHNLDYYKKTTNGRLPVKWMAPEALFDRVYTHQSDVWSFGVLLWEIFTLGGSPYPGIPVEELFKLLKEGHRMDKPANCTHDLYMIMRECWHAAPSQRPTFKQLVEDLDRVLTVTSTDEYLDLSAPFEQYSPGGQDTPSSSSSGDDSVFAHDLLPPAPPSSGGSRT
EGFR (ErbB1) T790M C797S L858R, sequence (P00533 25-1210 T790M/C797S/L858R): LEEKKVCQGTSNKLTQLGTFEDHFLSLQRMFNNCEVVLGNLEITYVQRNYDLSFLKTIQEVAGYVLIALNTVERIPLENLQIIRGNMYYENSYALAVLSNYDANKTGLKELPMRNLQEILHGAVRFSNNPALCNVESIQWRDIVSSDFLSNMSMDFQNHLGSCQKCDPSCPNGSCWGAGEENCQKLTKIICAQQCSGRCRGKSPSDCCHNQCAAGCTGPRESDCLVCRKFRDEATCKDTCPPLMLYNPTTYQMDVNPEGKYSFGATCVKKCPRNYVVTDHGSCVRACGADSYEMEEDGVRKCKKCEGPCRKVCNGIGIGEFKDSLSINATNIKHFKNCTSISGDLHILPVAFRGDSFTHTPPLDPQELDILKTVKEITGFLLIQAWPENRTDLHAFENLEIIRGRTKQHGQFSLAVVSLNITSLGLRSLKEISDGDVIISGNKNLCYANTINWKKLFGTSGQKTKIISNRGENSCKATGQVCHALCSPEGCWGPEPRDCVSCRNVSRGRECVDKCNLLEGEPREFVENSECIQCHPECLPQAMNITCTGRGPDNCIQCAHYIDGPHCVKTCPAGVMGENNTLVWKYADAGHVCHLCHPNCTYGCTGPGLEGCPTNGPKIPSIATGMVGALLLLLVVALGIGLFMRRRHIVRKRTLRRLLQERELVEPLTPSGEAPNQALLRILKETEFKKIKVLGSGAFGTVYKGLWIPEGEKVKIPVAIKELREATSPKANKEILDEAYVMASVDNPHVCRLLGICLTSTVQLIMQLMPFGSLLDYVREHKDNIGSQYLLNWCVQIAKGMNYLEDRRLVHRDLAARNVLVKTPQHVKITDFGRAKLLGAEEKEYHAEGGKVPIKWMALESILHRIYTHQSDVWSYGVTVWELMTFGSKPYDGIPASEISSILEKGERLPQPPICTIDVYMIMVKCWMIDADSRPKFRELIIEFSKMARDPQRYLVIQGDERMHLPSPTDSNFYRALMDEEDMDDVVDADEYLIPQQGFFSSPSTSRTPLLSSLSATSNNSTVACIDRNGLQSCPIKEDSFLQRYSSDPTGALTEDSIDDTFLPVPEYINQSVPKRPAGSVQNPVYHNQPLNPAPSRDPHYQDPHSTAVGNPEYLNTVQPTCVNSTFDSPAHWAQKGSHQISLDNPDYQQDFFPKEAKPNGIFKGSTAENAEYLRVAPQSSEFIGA
T2 sequence (P48729 whole entry): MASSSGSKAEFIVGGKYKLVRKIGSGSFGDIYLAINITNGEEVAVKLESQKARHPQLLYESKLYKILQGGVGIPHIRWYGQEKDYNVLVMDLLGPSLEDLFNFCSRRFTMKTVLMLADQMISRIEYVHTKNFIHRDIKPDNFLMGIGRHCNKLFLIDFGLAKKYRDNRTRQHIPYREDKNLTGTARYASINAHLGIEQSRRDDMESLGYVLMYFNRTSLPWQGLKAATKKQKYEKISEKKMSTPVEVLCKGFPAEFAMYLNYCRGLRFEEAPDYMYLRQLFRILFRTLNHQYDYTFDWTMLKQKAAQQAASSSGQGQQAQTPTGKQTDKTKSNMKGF
T19 sequence (Q52WX2 whole entry): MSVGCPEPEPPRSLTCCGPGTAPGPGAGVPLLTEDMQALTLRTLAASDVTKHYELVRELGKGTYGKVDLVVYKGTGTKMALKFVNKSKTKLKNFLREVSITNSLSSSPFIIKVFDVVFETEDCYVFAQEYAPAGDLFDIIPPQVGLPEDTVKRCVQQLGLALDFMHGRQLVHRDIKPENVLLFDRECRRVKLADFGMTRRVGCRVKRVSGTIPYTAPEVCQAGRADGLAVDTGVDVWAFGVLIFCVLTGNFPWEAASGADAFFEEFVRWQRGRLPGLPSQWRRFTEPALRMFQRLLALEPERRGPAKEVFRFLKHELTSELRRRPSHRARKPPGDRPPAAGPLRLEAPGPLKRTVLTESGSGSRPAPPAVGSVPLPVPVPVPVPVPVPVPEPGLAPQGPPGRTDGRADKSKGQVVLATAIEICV

COc1ccc2[nH]c3c(=O)[nH]c4ccc(O)cc4c3c2c1 [Compound 55, 2-Hydroxy-10-methoxy-5,7-dihydro-6H-indolo[2,3-c]quinolin-6-one]
inhibition at 1 µM (RAF1 (cRAF) Y340D Y341D): 94%
inhibition at 1 µM (PRKCG (PKC gamma)): 14%
inhibition at 1 µM (YES1): 61%
inhibition at 1 µM (CSNK1A1 (CK1 alpha 1)): 51%
inhibition at 1 µM (CDKL5): 5%
inhibition at 1 µM (PRKCQ (PKC theta)): 7%
inhibition at 1 µM (DYRK1A): 96%
inhibition at 1 µM (SRMS (Srm)): 16%
inhibition at 1 µM (MARK3): 31%
inhibition at 1 µM [1]: 13%
inhibition at 1 µM (MAPK13 (p38 delta)): 20%
inhibition at 1 µM (FGFR4): 22%
inhibition at 1 µM (FGFR2 N549H): 24%
inhibition at 1 µM (STK3 (MST2)): 99%
inhibition at 1 µM (SRPK2): 6%
inhibition at 1 µM (FGFR3 V555M): 46%
inhibition at 1 µM (MAP4K2 (GCK)): 47%
inhibition at 1 µM (MAP4K4 (HGK)): 81%
inhibition at 1 µM (ABL1): 43%
inhibition at 1 µM (PAK3): 5%
inhibition at 1 µM (SNF1LK2): 24%
inhibition at 1 µM (RPS6KA2 (RSK3)): 88%
inhibition at 1 µM (FLT3 D835Y): 100%
inhibition at 1 µM (AMPK (A2/B2/G3)): 57%
inhibition at 1 µM (MAPKAPK5 (PRAK)): 22%
inhibition at 1 µM (PLK2): 74%
inhibition at 1 µM (STK24 (MST3)): 63%
inhibition at 1 µM (PRKCE (PKC epsilon)): 10%
inhibition at 1 µM (SBK1): 1%
inhibition at 1 µM (FLT4 (VEGFR3)): 72%
inhibition at 1 µM (AMPK (A1/B2/G2)): 67%
inhibition at 1 µM (SRC): 37%
inhibition at 1 µM (PTK2 (FAK)): 25%
EC50 (U-2 OS cell line): 3.4 µM
